According to PubChem BioAssay (NCI):
“And” between values parts separate entries of the source, which are not always exact repeats. Equal values may be shown once.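 Protocol summary: plate cells (96-well), add compound at 5 concentrations, incubate 48 h, interpolate endpoints linearly. At the GI50, growth is halved. TGI is the concentration that stops growth completely.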

Columns and labels:
Assay in all cases: NCI-60 cell line screen, 48 h
HCT-15 colon = tested on: HCT-15 colon
ACHN renal = tested on: ACHN renal
HCT-116 colon = tested on: HCT-116 colon
NCI-H522 lung = tested on: NCI-H522 lung
SK-MEL-2 melanoma = tested on: SK-MEL-2 melanoma
SF-295 CNS = tested on: SF-295 CNS
LOX IMVI melanoma = tested on: LOX IMVI melanoma
SK-OV-3 ovarian = tested on: SK-OV-3 ovarian
OVCAR-4 ovarian = tested on: OVCAR-4 ovarian
SR leukemia = tested on: SR leukemia

SMILES | GI50 (HCT-15 colon) | TGI (HCT-15 colon) [µM] | GI50 (ACHN renal) [µM] | TGI (ACHN renal) | GI50 (HCT-116 colon) [µM] | TGI (HCT-116 colon) [µM] | GI50 (NCI-H522 lung) [µM] | TGI (NCI-H522 lung) | GI50 (SK-MEL-2 melanoma) [µM] | TGI (SK-MEL-2 melanoma) [µM] | GI50 (SF-295 CNS) [µM] | TGI (SF-295 CNS) [µM] | GI50 (LOX IMVI melanoma) [µM] | TGI (LOX IMVI melanoma) | GI50 (SK-OV-3 ovarian) | TGI (SK-OV-3 ovarian) [µM] | GI50 (OVCAR-4 ovarian) [µM] | TGI (OVCAR-4 ovarian) [µM] | GI50 (SR leukemia) [µM] | TGI (SR leukemia) [µM]
O=[N+]([O-])c1ccc(N/N=C/c2ccccc2O)nc1 | 0.639 µM | > 100 | 0.594 | > 100 µM | 0.371 | > 100 | 0.289 | > 100 µM | 3 | > 100 | 2.92 | > 100 | 0.92 | > 100 µM | 2.54 µM | > 100 | 0.408 | > 100 | – | –
CC[C@@]1(O)C(=O)OCc2c1cc1n(c2=O)Cc2cc3c(Cl)c4c(cc3nc2-1)OCO4 | 0.215 µM and 0.178 µM | > 100 | < 0.001 | 0.00185 µM and 0.0109 µM | 1.1 | > 100 | – | 7.58 µM and 60.5 µM | – | – | < 0.001 | – | < 0.001 | 0.218 µM and 0.321 µM | 0.00265 µM and 0.0176 µM | – | – | – | < 0.001 | –
Cc1cc2oc(=O)c(Cl)c(Cl)c2c(C)c1Cl | – | 14.3 | – | 23.3 µM | – | 14 | – | 28.3 µM | – | 26 | – | 31.9 | – | 8.84 µM | – | 27.6 | – | 15.6 | – | –
Cc1cn(C2CC(N=[N+]=[N-])C(CO)O2)c(=O)[nH]c1=O (stereo not given) | > 1000 µM | > 1000 | > 1000 | > 1000 µM | – | 422 | > 1000 | > 1000 µM | > 1000 | > 1000 | – | – | 532 | > 1000 µM | > 1000 µM | > 1000 | > 1000 | > 1000 | – | > 1000
CCOC(=O)C/C(N)=C(\C#N)C(=O)OCC | – | > 100 | – | > 100 µM | – | > 100 | – | > 100 µM | – | > 100 | – | > 100 | – | > 100 µM | – | > 100 | – | – | – | > 100
O=C1C=CC(=O)c2c1cc1ccccc1c2O | – | 13.3 | – | 8.26 µM | – | 4.05 | – | 3.98 µM | – | 30.9 | – | 31.6 | – | 9.06 µM | – | 34.3 | – | 5.67 | – | –
O=S1c2ccccc2N=C(c2ccc3ccccc3c2)CC1c1ccccc1F (stereo not given) | – | > 100 | – | > 100 µM | – | – | – | > 100 µM | – | > 100 | – | > 100 | – | > 100 µM | – | > 100 | – | > 100 | – | –
CC(N)CN.CC(N)CN.[Cl-].[O]=[Os+2]=[O] (stereo not given) | > 100 µM | > 100 | – | – | 36.5 | > 100 | 30.9 | > 100 µM | > 100 | > 100 | > 100 | > 100 | 27 | > 100 µM | – | – | > 100 | > 100 | 28.6 | > 100
COc1ccc(C2c3cc4c(c(OC)c3CC3OCC(=O)C32)OCO4)cc1OC (stereo not given) | < 0.01 µM | > 100 | – | 71.7 µM | < 0.01 | – | – | 0.0181 µM | – | > 100 | < 0.01 | < 0.01 | – | – | < 0.01 µM | > 100 | 15.7 | > 100 | – | < 0.01
